Experimental data: US9388123B2, “LSD1-selective inhibitor having lysine structure” (KYOTO UNIVERSITY, priority 2012, dated 2016)
Where a name gives a salt, the structure may show the parent alone.

Assays:
SH-SY5Y cells = experiment: Cancer cell growth inhibition evaluation (MTT assay); format: cell-based; conditions: Homo sapiens, read-out: GI50 (μM) SH-SY5Y
Description: (§1) Evaluation was performed by measuring the inhibitory activities of a compound against the growth of a human cervical cancer-derived cell line, HeLa cells, and a human neuroblastoma cell line, SH-SY5Y cells. Details thereof are shown below. […] This assay involves, as a principle thereof, measuring an absorbance at the time of color development through a reaction of NADH, which is contained in the mitochondria of viable cells, and MTT to measure the amount of NADH. The assay was performed by the following procedure. […] After the culture, a compound was added. Then, the cells were cultured for an additional 48 hours, and then 5 mg/ml MTT liquid was added at 10 μl per well. The cells were cultured for an additional 3 hours in a CO2 incubator. A solubilization solution (0.04 mol/l hydrochloric acid-isopropanol) was added at 100 μl per well and the mixture was vigorously vortexed. After that, an absorbance at 560 nm was measured with Fusion-aFP (manufactured by PerkinElmer) and the amount of viable cells was determined.

HeLa cells = experiment: as above; format: cell-based; conditions: Homo sapiens, 48 h, read-out: GI50 (μM) HeLa
Description: as §1

K562 = experiment: Leukemia cell growth inhibition evaluation (WST-8); format: cell-based; conditions: Homo sapiens, day 3 (72-hour culture), read-out: Human leukemia cell line GI50 (μM) K562
Source text: (§2) HL60, THP-1, K562, U937, KGla, HEL, and MDS-L were used as human leukemia cells. The cell lines are cell lines established from various subtypes such as acute myeloid leukemia, acute promyelocytic leukemia, acute monocytic leukemia, acute erythroid leukemia, and myelodysplastic syndromes, which progress to leukemia. Cells obtained by introducing leukemia fusion genes MLL/AF9, MLL/SEPT6, and MLL/ENL into the bone marrow of normal mice with a retrovirus so as to develop leukemia were used as murine leukemia cell lines.
(§3) This assay method involves, as a principle thereof, measuring an absorbance (a peak at from 450 nm to 490 nm) at the time of color development through a reaction of NADH, which is contained in the mitochondria of viable cells, and WST-8 to measure the amount of NADH. Specifically, the assay was performed by the following procedure.
(§4) The cells were plated at 50 μl, i.e., 5,000 cells per well in a 96-well microtiter plate. Next, a test compound dissolved in DMSO was mixed at various concentrations into the same medium, and 50 μl of each of the mixtures was added to each well. A medium was prepared so that the final concentration of the test compound was from 0 μM to 50 μM and so that the addition amount of DMSO was the same, and the cells were cultured in a CO2 incubator. On day 0 before the addition and on day 1, day 2, and day 3 after the addition, WST-8 reagent was added at 20 μl per well, and the cells were cultured for 1 hour in a CO2 incubator. After that, measurement was performed with ARVO X3 (manufactured by PerkinElmer).
(§5) Specifically, an absorbance at 450 nm was measured, an absorbance at 595 nm was measured in the same well, and the absorbance at 595 nm was subtracted from the absorbance at 450 nm to perform background correction for the well itself. Further, a well containing only a medium free of cells was subjected to the same measurement. A value in this case was also subtracted. Thus, the amount of viable cells was represented as a numerical value with correction of the influence of a medicament or a medium as well. Under a condition not containing the test compound (addition of only dimethyl sulfoxide), an exponential increase in number of viable cells on day 1, day 2, and day 3 in the stated order was confirmed.

M7 = experiment: Leukemia cell growth inhibition evaluation (WST-8); format: cell-based; conditions: Homo sapiens; day 3 (72-hour culture); read-out: Human leukemia cell line GI50 (μM) M7
Source text: as §2, §3, §4, §5

[1] = molecular target: T1, monoamine oxidase A (MAO-A) (Homo sapiens, UniProt P21397); experiment: Monoamine oxidase inhibition test (MAO-Glo assay kit); format: biochemical; conditions: room temperature, 1 hour
T1 construct: purchased Sigma-Aldrich
T1 sequence (P21397 1-527): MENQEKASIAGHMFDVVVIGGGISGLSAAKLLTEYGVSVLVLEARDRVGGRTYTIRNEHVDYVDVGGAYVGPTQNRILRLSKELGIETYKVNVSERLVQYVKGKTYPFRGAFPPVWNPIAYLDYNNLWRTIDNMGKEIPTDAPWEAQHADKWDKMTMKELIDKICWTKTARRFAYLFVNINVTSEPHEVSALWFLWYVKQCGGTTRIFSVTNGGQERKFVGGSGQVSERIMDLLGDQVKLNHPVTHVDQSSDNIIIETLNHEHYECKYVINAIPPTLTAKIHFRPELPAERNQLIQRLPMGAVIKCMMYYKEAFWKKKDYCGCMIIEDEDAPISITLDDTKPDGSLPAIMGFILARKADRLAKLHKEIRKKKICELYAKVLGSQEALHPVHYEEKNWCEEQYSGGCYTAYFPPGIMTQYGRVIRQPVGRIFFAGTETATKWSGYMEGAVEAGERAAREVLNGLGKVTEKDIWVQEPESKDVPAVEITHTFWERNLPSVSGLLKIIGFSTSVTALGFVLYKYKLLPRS
Description: To the reaction liquid was added 50 μL of a luciferin detection reagent, and the mixture was subjected to a reaction at room temperature for 20 minutes.

SMILES | GI50 (SH-SY5Y cells) [µM] | GI50 (HeLa cells) [µM] | GI50 (K562) [µM] | GI50 (M7) [µM] | IC50 [1] [µM]
O=C(N[C@@H](CCCCNC1CC1c1ccccc1)C(=O)NCc1ccccc1)c1ccc(-c2ccccc2)cc1 (stereo partly drawn) [Example 8, 2-[N-(4-Phenylbenzenecarbonyl)]amino-6-(trans-2-phenylcyclopropan-1-amino)-N-benzylhexanamide Hydrochloride] | 4 | 11 | 3.2 | ~6 | 86
O=C(N[C@@H](CCCCNC1CC1c1ccccc1)C(=O)NCc1cccc(C(F)(F)F)c1)c1ccc(-c2ccccc2)cc1 (stereo partly drawn) [Example 19, 2-[N-(4-Phenylbenzenecarbonyl)]amino-6-(trans-2-phenylcyclopropan-1-amino)-N-(3-trifluoromethylbenzyl)hexanamide Hydrochloride] | 2.9 | 4.3 | – | – | > 100
